The values that follow come from publication PMC5471252, “Anti-leukemia activity of a Hsp70 inhibitor and its hybrid molecules” (Scientific Reports, 2017).

The subject of one data set is HL-60 cells. The data set is described as follows: MTT assay, cell viability of HL-60 cells. It counts as cell-based. The conditions noted are these: Homo sapiens, 48 h, mean ± s.d., n = 3, read-out: IC50 values of compounds for leukemia cells.
For a further data set, the system named is KG-1 cells. The data set is described as follows: MTT assay, cell viability of KG-1 cells. The conditions noted are these: Homo sapiens, 48 h, mean ± s.d., n = 3, read-out: IC50 values of compounds for leukemia cells. It is filed as cell-based.
In a further data set the test system is THP-1 cells. Description: MTT assay, cell viability of THP-1 cells. The conditions noted are these: Homo sapiens, 48 h, mean ± s.d., n = 3, read-out: IC50 values of compounds for leukemia cells. It is filed as cell-based.
Another data set deals with U937 cells. The data set is described as follows: MTT assay, cell viability of U937 cells. It is filed as cell-based. The following applies: Homo sapiens, U-937, 48 h, mean ± s.d., n = 3, read-out: IC50 values of compounds for leukemia cells.
For a further data set, the system named is Jurkat cells. Description: MTT assay, cell viability of Jurkat cells. It is filed as cell-based. The conditions noted are these: Homo sapiens, 48 h, mean ± s.d., n = 3, read-out: IC50 values of compounds for leukemia cells.
The test system of another data set is K562 cells. The data set is described as follows: MTT assay, cell viability of K562 cells. It is filed as cell-based. The following applies: Homo sapiens, 48 h, mean ± s.d., n = 3, read-out: IC50 values of compounds for leukemia cells. (In general: Tetrazolium assays rely on reduction of a dye to a coloured formazan, in cell work by metabolically active cells.)

The test system of the next data set is HL-60 and K562 cells. The data set is described as follows: Flow cytometry, fluorescein-annexin V and PI staining. The conditions noted are these: 24 h; 10 µM Az, 10 µM GD or 4 µM Az-O3-GD. It is filed as cell-based, human. The procedure:
To determine whether Az promotes leukemia cell death via apoptosis, acute leukemia HL-60 and chronic leukemia K562 cells were independently incubated with Az. The treated cells were then exposed to a mixed solution of fluorescein-annexin V and propidium iodide (PI) and flow cytometry analysis was conducted. […] The size of the treated cells was also assessed by using flow cytometry. […] We also investigated if the mitochondrial membrane potential in cells treated with Az is disrupted. To test this possibility, HL-60 and K562 cells were exposed to Az and subsequently stained with a membrane potential sensitive JC-1 probe. […] This serves as another evidence for apoptosis induced by Az.
HL-60 and K562 cells were incubated with each compound for 24 h in culture media. Cells were re-suspended with 500 μL binding buffer (10 mM HEPES, […] and 2.5 mM CaCl2, pH 7.5) and then incubated with the FITC-annexin V apoptosis detection kit with PI according to the protocol provided by the manufacturer. Flow cytometry was carried out by using a BD FACSVerse™ instrument (BD Biosciences) and the data were analyzed by using a FlowJo™ software (BD Biosciences).
Background: In flow cytometry, cells or beads pass a laser one at a time.

Data set [1] deals with human leukemia cells (HL-60, KG-1, THP-1, U937, Jurkat and K562 cells). Description: MTT assay, all tested leukemia cells (summary statements). The following applies: all tested leukemia cells, MTT, compared with Az, GD and imatinib. The procedure: To assess anti-leukemia activity of Az, several human leukemia cells (HL-60 cells, acute myeloid leukemia; Jurkat cells, acute T-lymphocytic leukemia; KG-1 cells, acute myeloid leukemia; U937 cells, acute myeloid leukemia; THP-1 cells, acute monocytic leukemia; K562 cells, chronic myeloid leukemia) were incubated with Az for 48 h. […] An MTT assay was then performed to measure cell viabilities.
Cells were exposed to each compound (a HCl salt form) at various concentrations for indicated time periods (24 or 48 h) in culture media. MTT assays were conducted according to known procedures. The absorbance at 570 nm was determined by employing a microplate reader (TECAN, Infinite® 200 PRO).

Another data set addresses T1, ATPase domain of Hsp70 (Homo sapiens, UniProt P0DMV8).
T1 construct: mixed with 2 µg of an ATPase domain of Hsp70
The data set is described as follows: PiColorLock ATPase assay, Hsp70. It is filed as biochemical. The conditions noted are these: 10, 20 and 40 µM compound, 10 µM ATP, compared with Az. As for the experimental part: (§1) Inhibition by the hybrids on the ATPase activities of Hsp70 and Hsp90 was determined by using a PiColorLock assay and on the kinase activity of Abl by using a radiometric assay.
ATPase assays. ATPase assays were conducted in 20 mM Tris-HCl, 10 mM MgCl2 and 100 mM KCl buffer solution mixed with 2 µg of an ATPase domain of Hsp70. Each compound (10, 20 and 40 µM) was added to the protein solution in a 96-well plate. After the mixture was placed in the plate for 30 min at room temperature, 10 µM ATP was added to the mixture and the mixture was incubated for 3 h at 37 °C. To measure ATPase activity, 10 µl of a 1:100 mixture of PiColorLock Gold reagent (Innova Biosciences) and an accelerator was added to each well. After 5 min at room temperature, 4 µL of a stabilizer was added to the mixture and then incubated for additional 30 min before taking measurement. The absorbance at 620nm was measured by using an Infinite® 200 PRO multimode microplate reader. The same procedure was used to measure ATPase activity of Hsp90 except concentrations of protein (1 µg) and ATP (1 mM).
Supplementary Figure S10. Inhibitory effect of hybrid molecules on Hsp70, Hsp90 and Abl activities. (a) ATPase activity of Hsp70 was measured by using a Pi-Colorlock assay after incubation of an ATPase domain of Hsp70 with various concentrations of indicated molecules and 10 µM ATP (mean ± s.d., n =3). (b) ATPase activity of Hsp90 was measured by using a Pi-Colorlock assay after incubation of Hsp90 with various concentrations of indicated molecules and 1 mM ATP (mean ± s.d., n = 3). (c) Abl kinase activity was measured by using a radiometric kinase assay after incubation of Abl with a peptide substrate in the presence of various concentrations of indicated molecules and γ-^33P-ATP (mean ± s.d., n =3).

In the next data set the target is T2, human recombinant Abl (Homo sapiens, UniProt P00519).
T2 construct: purchased Eurofins Pharma Discovery Services (UK Limited); host or cells: insect cells
T2 sequence (P00519 whole entry): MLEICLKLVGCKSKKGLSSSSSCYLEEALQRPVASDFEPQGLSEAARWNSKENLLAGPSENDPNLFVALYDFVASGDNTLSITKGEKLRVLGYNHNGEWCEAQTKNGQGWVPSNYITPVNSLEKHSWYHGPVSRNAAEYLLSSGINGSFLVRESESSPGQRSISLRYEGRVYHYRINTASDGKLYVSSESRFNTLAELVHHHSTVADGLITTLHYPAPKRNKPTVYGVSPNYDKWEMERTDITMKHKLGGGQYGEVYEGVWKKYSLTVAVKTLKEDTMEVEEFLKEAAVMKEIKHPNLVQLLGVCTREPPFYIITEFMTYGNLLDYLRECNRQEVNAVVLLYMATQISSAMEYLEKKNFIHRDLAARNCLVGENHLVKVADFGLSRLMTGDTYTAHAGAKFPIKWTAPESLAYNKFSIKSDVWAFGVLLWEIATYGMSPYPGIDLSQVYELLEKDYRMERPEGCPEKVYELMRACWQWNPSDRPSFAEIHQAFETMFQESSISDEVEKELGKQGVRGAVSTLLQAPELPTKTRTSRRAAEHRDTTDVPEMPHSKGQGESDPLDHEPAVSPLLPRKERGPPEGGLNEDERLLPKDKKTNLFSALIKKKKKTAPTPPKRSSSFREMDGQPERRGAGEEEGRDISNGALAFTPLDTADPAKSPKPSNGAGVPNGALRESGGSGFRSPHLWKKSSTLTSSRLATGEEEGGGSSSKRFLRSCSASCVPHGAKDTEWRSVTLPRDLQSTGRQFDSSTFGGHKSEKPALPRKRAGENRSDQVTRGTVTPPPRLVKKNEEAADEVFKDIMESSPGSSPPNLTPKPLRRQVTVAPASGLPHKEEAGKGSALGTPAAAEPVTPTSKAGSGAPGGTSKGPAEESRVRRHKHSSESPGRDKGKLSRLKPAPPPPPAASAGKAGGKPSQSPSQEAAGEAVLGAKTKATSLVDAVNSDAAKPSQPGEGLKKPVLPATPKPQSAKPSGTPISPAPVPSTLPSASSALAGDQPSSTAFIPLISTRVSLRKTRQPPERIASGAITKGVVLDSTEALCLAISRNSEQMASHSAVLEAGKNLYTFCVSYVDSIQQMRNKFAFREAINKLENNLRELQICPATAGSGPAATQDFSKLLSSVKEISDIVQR
The data set is described as follows: Radiometric Abl kinase assay. It counts as biochemical. The conditions noted are these: compared with imatinib. The procedure:
as §1
Abl kinase assays. Abl kinase assays were conducted by Eurofins Pharma Discovery Services (UK Limited). Briefly, each compound was pre-incubated with 0.25 µg/mL of human recombinant Abl (expressed in insect cells) in 20 mM MOPS containing 1 mM EDTA, 0.01% Brij-35, 5% glycerol, 0.1% β-mercaptoethanol and 1 mg/mL BSA for 15 min at 37 °C. To the enzyme mixture was added 0.2 mg/mL of poly(Glu:Tyr), 10 µM ATP and 0.25 µCi [γ^33P]ATP. After incubation for 30 min, 3% H3PO4 was added to the mixture to stop enzyme reactions. An aliquot was removed and counted to determine the amount of [^33P]poly(Glu:Tyr) formed by using a Trilux scintillation counter (Wallac Microbeta 12-detector model, Perkin Elmer).
Supplementary Figure S10. Inhibitory effect of hybrid molecules on Hsp70, Hsp90 and Abl activities. (a) ATPase activity of Hsp70 was measured by using a Pi-Colorlock assay after incubation of an ATPase domain of Hsp70 with various concentrations of indicated molecules and 10 µM ATP (mean ± s.d., n =3). (b) ATPase activity of Hsp90 was measured by using a Pi-Colorlock assay after incubation of Hsp90 with various concentrations of indicated molecules and 1 mM ATP (mean ± s.d., n = 3). […]

For orientation: IC50 means the midpoint of a concentration-inhibition curve.

T1 sequence (P0DMV8 2-386 limits assumed): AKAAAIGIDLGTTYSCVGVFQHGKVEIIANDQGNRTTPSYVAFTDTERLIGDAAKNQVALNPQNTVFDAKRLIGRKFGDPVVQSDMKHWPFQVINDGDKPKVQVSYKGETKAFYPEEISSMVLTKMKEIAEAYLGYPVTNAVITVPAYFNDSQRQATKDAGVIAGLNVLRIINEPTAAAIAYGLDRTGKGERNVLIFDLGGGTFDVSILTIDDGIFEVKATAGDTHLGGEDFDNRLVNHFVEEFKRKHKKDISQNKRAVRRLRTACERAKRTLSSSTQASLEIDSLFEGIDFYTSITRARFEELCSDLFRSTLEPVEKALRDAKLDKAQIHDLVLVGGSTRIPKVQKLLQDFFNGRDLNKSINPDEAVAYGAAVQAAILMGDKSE

For the compound `COC1=C2C[C@@H](C)C[C@H](OC)[C@H](O)[C@@H](C)/C=C(\C)[C@H](OC(N)=O)[C@@H](OC)/C=C\C=C(/C)C(=O)NC(=CC1=O)C2=O` [GD, geldanamycin, reference compound], the IC50 was determined as 2.3 ± 0.74 µM with HL-60 cells; 3.2 ± 1.21 µM in the data set with KG-1 cells; 0.9 ± 0.33 µM in the data set with THP-1 cells; 4.8 ± 1.22 µM in the data set on U937 cells; 4.8 ± 1.06 µM in the data set on Jurkat cells; 3.7 ± 1.11 µM in the data set on K562 cells. For the same compound, in the data set on HL-60 and K562 cells, the “apoptosis, annexin V binding and PI uptake” value is recorded as “induces apoptosis”.

For `COc1ccc(-c2nc(-c3cc(C(F)(F)F)cc(C(F)(F)F)c3)n(Cc3ccc(C(=O)NCCOCCOCCNC(=O)COCCOCCOCCNC4=C5C[C@@H](C)C[C@H](OC)[C@H](O)[C@@H](C)/C=C(\C)[C@H](OC(N)=O)[C@@H](OC)/C=C\C=C(/C)C(=O)NC(=CC4=O)C5=O)cc3)c2-c2ccc(OC)cc2)cc1` [Az-amide-GD], the “cytotoxicity relative to the individual inhibitors” value in [1] is on record as “poorer cytotoxicity”. Further, the “inhibition of the ATPase activity of Hsp70” value (shortened to “inhibition”) against ATPase domain of Hsp70 is “lower inhibitory activity towards Hsp70 than Az”.

As to `COc1ccc(-c2nc(-c3cc(C(F)(F)F)cc(C(F)(F)F)c3)n(Cc3ccc(C(=O)NCCOCCOCCOCCOCCN4CCN(Cc5ccc(C(=O)Nc6ccc(C)c(Nc7nccc(-c8cccnc8)n7)c6)cc5)CC4)cc3)c2-c2ccc(OC)cc2)cc1` [Az-O4-Imatinib], the IC50 was more than 10 µM with HL-60 cells; more than 10 µM in the data set on KG-1 cells; more than 10 µM with THP-1 cells; more than 10 µM with U937 cells; more than 10 µM with Jurkat cells; 4.5 ± 0.88 µM with K562 cells. Further, the “cytotoxicity relative to the individual inhibitors” value in [1] is on record as “poorer cytotoxicity”. Moreover, the “inhibition” value at ATPase domain of Hsp70 is listed as “much weaker inhibitors of Hsp70 compared to Az”. Besides, the “inhibitory activity towards Abl kinase” value at human recombinant Abl is on record as “significantly reduced inhibitory activities towards Abl kinase compared to imatinib”.

`COc1ccc(-c2nc(-c3cc(C(F)(F)F)cc(C(F)(F)F)c3)n(Cc3ccc(C(=O)NCCOCCOCCOCCN4CCN(Cc5ccc(C(=O)Nc6ccc(C)c(Nc7nccc(-c8cccnc8)n7)c6)cc5)CC4)cc3)c2-c2ccc(OC)cc2)cc1` [Az-O3-Imatinib]: the IC50 with HL-60 cells was more than 10 µM; in the data set on KG-1 cells it was more than 10 µM; in the data set on THP-1 cells, more than 10 µM; in the data set on U937 cells, more than 10 µM; in the data set on Jurkat cells it was more than 10 µM; in the data set on K562 cells, 4.3 ± 0.91 µM. Also, the “cytotoxicity relative to the individual inhibitors” value in data set [1] was “poorer cytotoxicity”. In addition, the “inhibition” value at ATPase domain of Hsp70 is listed as “much weaker inhibitors of Hsp70 compared to Az”. For the same compound, the “inhibitory activity towards Abl kinase” value on human recombinant Abl is “significantly reduced inhibitory activities towards Abl kinase compared to imatinib”.

Take `COc1ccc(-c2nc(-c3cc(C(F)(F)F)cc(C(F)(F)F)c3)n(Cc3ccc(C(=O)NCCOCCOCCNC4=C5C[C@@H](C)C[C@H](OC)[C@H](O)[C@@H](C)/C=C(\C)[C@H](OC(N)=O)[C@@H](OC)/C=C\C=C(/C)C(=O)NC(=CC4=O)C5=O)cc3)c2-c2ccc(OC)cc2)cc1` [Az-GD]: the IC50 is 0.73 ± 0.22 µM with HL-60 cells; 0.91 ± 0.41 µM in the data set with KG-1 cells; 0.36 ± 0.12 µM in the data set on THP-1 cells; 1.12 ± 0.32 µM with U937 cells; 0.89 ± 0.25 µM in the data set with Jurkat cells; 0.63 ± 0.21 µM with K562 cells. For the same compound, the “cytotoxicity relative to the individual inhibitors” value in [1] is recorded as “greatly enhanced cytotoxicities”.
